Measured values: US9169463B2, “Stem cell for therapeutic use which is derived from human monocyte, and method for inducing same” (OTSUKA PHARMACEUTICAL CO., LTD., priority 2008, dated 2015)

Tested on: peripheral blood monocytes
Test: Comparison of stem cell-inducing activities of various gangliosides (viable cells, CellTiter-Glo)
Assay type: cell-based, human
Details: gangliosides 100 μg/ml, rhM-CSF 25 ng/ml, second week of culture
Description: More specifically, gangliosides were added to a culture medium at a final concentration of 100 μg/ml, and peripheral blood monocytes were cultured.
rhM-CSF was added thereto at a final concentration of 25 ng/ml. Then, the number of viable cells in the second week of culture was quantified as luciferase activity using CellTiter-Glo (Promega).

| Substance | stem cell-inducing activity (number of viable cells as luciferase activity, FIG. 3) |
| --- | --- |
| aNeu5Ac(2-3)bDGalp(1-3)bDGalNAc(1-4)[aNeu5Ac(2-3)]bDGalp(1-4)bDGlcp(1-1)Cer [GD1a] | equally-strong stem cell-inducing activities |
| aNeu5Ac(2-3)bDGalp(1-3)bDGalNAc(1-4)[aNeu5Ac(2-8)aNeu5Ac(2-3)]bDGalp(1-4)bDGlcp(1-1)Cer [GT1b] | equally-strong stem cell-inducing activities |
| bDGalp(1-3)bDGalNAc[aNeu5Ac(2-3)]bDGalp(1-4)bDGlcp(1-1)Cer [GM1] | equally-strong stem cell-inducing activities |
